The values that follow are results of earlier work, collected in patent US20240325474A1 (priority 2023, published 2024).

A word on the CC50: it is the concentration giving 50% cytotoxicity. Usually pIC50 stands for the negative decadic logarithm of the IC50, by convention in mol/L.

pIC50: −log10 of the molar value. Converted amounts (≈) assume the structure as drawn.

Data set [1] deals with Calu-3 lung epithelia cell lines.
Data set [2] concerns SARS-COV-2. The following applies: Calu-3 cells.

Regarding `C=C1CC[C@@H]2[C@](C)(CO)[C@H](O)CC[C@@]2(C)[C@@H]1C/C=C1/C(=O)OC[C@H]1O` [andrographolide], the CC50 in data set [1] was 58.03 mg/L (≈ 166 µM). For the same compound, the pIC50 in data set [2] was 7.47.
